Laboratory results taken from patent EP1761537B1, “PYRROLO[2,1-C][1,4]BENZODIAZEPINE-NAPTHALIMIDE […] THROUGH […] AND PROCESS FOR PREPARATION THEREOF” (Council of Scientific and Industrial Research, priority 2004, dated 2006).

Columns and labels:
[1] = test system: CT-DNA; assay: DNA Thermal Denaturation Studies; format: binding; conditions: 1:5 molar ratio [PBD]/[DNA], CT-DNA 100 µM, ligand 20 µM, 10 mM sodium phosphate + 1 mM EDTA, pH 7.00
Protocol: For CT-DNA alone at pH 7.00 ± 0.01, Tm = 69.8 °C ± 0.01 (mean value from 10 separate determinations), all ΔTm values are ± 0.1 - 0.2 °C. For a 1:5 molar ratio of [PBD]/[DNA], where CT-DNA concentration = 100 µM and ligand concentration = 20 µM in aqueous sodium phosphate buffer [10 mM sodium phosphate + 1 mM EDTA, pH 7.00 ± 0.01].

[2] = test system: HOP-62; assay: In vitro cytotoxicity against human cancer cell lines (sulforhodamine B); format: cell-based; conditions: HOP-62 (lung), 48 hours, read-out: percentage growth inhibition; for inhibition at 10 µM: 10^-5 mol/L; for inhibition at 1 µM: 10^-6 mol/L
Protocol: (§1) In vitro cytotoxicity against human cancer cell lines: The human cancer cell lines procured from National Cancer Institute, Frederick, U.S.A or National Center for Cell Science; Pune, India. were used in present study. Cells were grown in tissue culture flasks in complete growth medium (RPMI-1640 medium with 2 mM glutamine, 100 µg/ml streptomycin, pH 7.4, sterilized by filtration and supplemented with 10% fetal calf serum and 100 units/ml penicillin before use) at 37°C in an atmosphere of 5% CO2 and 90% relative humidity in a carbon dioxide incubator. The cells at subconfluent stage were harvested from the flask by treatment with trypsin (0.5% in PBS containing 0.02% EDTA) for determination of cytotoxicity. Cells with viability of more than 98% as determined by trypan blue exclusion were used for assay. The cell suspension of the required cell density were prepared in complete growth medium with gentamycin (50µg/ml) for determination of cytotoxicity.
(§2) A stock solutions of (2 X 10^-2 M) of test material were prepared in DMSO . The stock solutions were serially diluted with complete growth medium containing 50µg/ml of gentamycin to obtain working test solutions of required concentrations.
(§3) In vitro cytotoxicity against human cancer cell lines was determined (Monks, A., Scudiero, D., Skehan, P, Shoemaker R, Paull, K., Vistica, D., Hose, C., Langley, J., Cronise, P., Vaigro-Wolff, A., Gray-Goodrich, M.; Campbell,H., Mayo, J and Boyd M. J. Natl. Cancer Inst.,1991,83, 757-766) using 96-well tissue culture plates. The 100 µl of cell suspension was added to each well of the 96-well tissue culture plate. The cells were incubated for 24 hours. Test materials in complete growth medium (100µl) were added after 24 hours incubation to the wells containing cell suspension. The plates were further incubated for 48 hours (at 37°C in an atmosphere of 5% and 90% relative humidity in a carbon dioxide incubator) after addition of test material and then the cell growth was stopped by gently layering trichloroacetic acid (TCA, 50µl, 50%) on top of the medium in all the wells. The plates were incubated at 4°C for one hour to fix the cells attached to the bottom of the wells. The liquid of all the wells was gently pipetted out and discarded. The plates were washed five times with distilled water to remove TCA, growth medium low molecular weight metabolites, serum proteins etc and air-dried. Cell growth was measured by staining with sulforhodamine B dye (Skehan et al., 1990). The adsorbed dye was dissolved in Tris-Buffer ([…], 0.01M, pH 10.4) and plates were gently stirred for 5 minutes on a mechanical stirrer. The optical density was recorded on ELISA reader at 540 nm.
(§4) The cell growth was calculated by subtracting mean OD value of respective blank from the mean OD value of experimental set. Percent growth in presence of test material was calculated considering the growth in absence of any test material as 100% and in turn percent growth inhibition in presence of test material will be calculated.

[3] = test system: HCT-15; assay: as above; format: cell-based; conditions: HCT-15 (colon), 48 hours, read-out: percentage growth inhibition; for inhibition at 10 µM: 10^-5 mol/L; for inhibition at 1 µM: 10^-6 mol/L
Protocol: as §1, §2, §3, §4

[4] = test system: A-549; assay: as above; format: cell-based; conditions: A549, A-549 (lung), 48 hours, read-out: percentage growth inhibition; for inhibition at 100 µM: 10^-4 mol/L
Protocol: as §1, §2, §3, §4

[5] = test system: HT-29; assay: as above; format: cell-based; conditions: HT-29 (colon), 48 hours, read-out: percentage growth inhibition; for inhibition at 100 µM: 10^-4 mol/L; for inhibition at 10 µM: 10^-5 mol/L; for inhibition at 1 µM: 10^-6 mol/L
Protocol: as §1, §2, §3, §4

[6] = test system: SiHa; assay: as above; format: cell-based; conditions: SiHa (cervix), 48 hours, read-out: percentage growth inhibition; for inhibition at 10 µM: 10^-5 mol/L; for inhibition at 1 µM: 10^-6 mol/L; for inhibition at 100 µM: 10^-4 mol/L
Protocol: as §1, §2, §3, §4

SMILES | Induced […]Tm °C after incubation at 37 °C ([1]; 0 h incubation at 37 °C) | Induced […]Tm °C after incubation at 37 °C ([1]; 18 h incubation at 37 °C) | inhibition at 10 µM [2] | inhibition at 1 µM [2] | inhibition at 10 µM [3] | inhibition at 1 µM [3] | inhibition at 100 µM [4] | inhibition at 100 µM [5] | inhibition at 10 µM [5] | inhibition at 1 µM [5] | inhibition at 10 µM [6] | inhibition at 1 µM [6] | inhibition at 100 µM [6] | inhibition at 100 µM ([2]; 10^-4 mol/L) | inhibition at 10 µM ([4]; 10^-5 mol/L) | inhibition at 1 µM ([4]; 10^-6 mol/L)
COc1cc2c(cc1O)N=CC1CCCN1C2=O (centres unmarked) [DC-81, reference compound] | 0.3 °C | 0.7 °C | – | – | – | – | – | – | – | – | – | – | – | – | – | –
COc1cc2c(cc1OCCN1CCN(CCN3C(=O)c4cccc5cccc(c45)C3=O)CC1)N=C[C@@H]1CCCN1C2=O [VIIIa, 7-Methoxy-8-{2-[4-[2-(1,3-dioxo-benz[de]isoquinolin-2-yl)ethyl]piperazin-1=yl]ethyl}-oxy-(11aS)-1,2,3,11a tetrahydro-5H-pyrrolo [2,1-c][1,4]benzodiazepin-5-one] | 21.9 °C | 22.7 °C | – | – | – | – | – | – | – | – | – | – | – | – | – | –
COc1cc2c(cc1OCCCN1CCN(CCN3C(=O)c4cccc5cccc(c45)C3=O)CC1)N=C[C@@H]1CCCN1C2=O [VIIIb, 7-Methoxy-8-{3-[4-[2-(1,3-dioxo-benz[de]isoquinolin-2-yl)ethyl]piperazin-1-yl]propyl}-oxy-(11aS)-1,2,3,11a tetrahydro-5H-pyrrolo [2,1-c][1,4]benzodiazepin-5-one] | 25.8 °C | 26.7 °C | 86% | 72% | 59% | 58% | 88% | 88% | 85% | 91% | 44% | 54% | – | – | – | –
COc1cc2c(cc1OCCCCN1CCN(CCN3C(=O)c4cccc5cccc(c45)C3=O)CC1)N=C[C@@H]1CCCN1C2=O [VIIIc, 7-Methoxy-8-{4-[4-[2-(1,3-dioxo-benz[de]isoquinolin-2-yl)ethyl]piperazin-1-yl]butyl}-oxy-(11aS)-1,2,3,11a tetrahydro-5H-pyrrolo [2,1-c][1,4]benzodiazepin-5-one] | 23.4 °C | 24.2 °C | 93% | 86% | 69% | 60% | 95% | 94% | 86% | 80% | 39% | – | 56% | – | – | –
COc1cc2c(cc1OCCCN1CCN(CCCN3C(=O)c4cccc5cccc(c45)C3=O)CC1)N=C[C@@H]1CCCN1C2=O [VIIId, 7-Methoxy-8-{3-[4-[3-(1,3-dioxo-benz[de]isoquinolin-2-yl)propyl]piperazin-1-yl]propyl}-oxy-(11aS)-1,2,3,11a tetrahydro-5H-pyrrolo [2,1-c][1,4]benzodiazepin-5-one] | 13.1 °C | 14.3 °C | – | – | – | – | 95% | 95% | 62% | 63% | 65% | 31% | 85% | 78% | 30% | 51%
COc1cc2c(cc1OCCCCN1CCN(CCCCN3C(=O)c4cccc5cccc(c45)C3=O)CC1)N=C[C@@H]1CCCN1C2=O [VIIIe, 7-Methoxy-8-{4-[4-[4-(1,3-dioxo-benz[de]isoquinolin-2-yl)butyl]piperazin-1-yl]butyl}-oxy-(11aS)-1,2,3,11a tetrahydro-5H-pyrrolo [2,1-c][1,4]benzodiazepin-5-one] | 20.9 °C | 21.7 °C | 93% | 80% | 62% | 59% | 93% | 92% | 78% | 67% | 40% | 44% | 42% | – | – | –
